Each block holds one molecule with its values, some of them ahead of it.
Tests used:
[1] = test system: PFF1225c (C1 fragment), mitochondrial DNA polymerase; assay: DNA polymerase activity measurement of PFF1225c (C1 fragment), sensitivity to inhibitors; format: biochemical, Plasmodium falciparum; settings: for inhibition action to the DNA polymerase activity: FIG. 12a, FIG. 13a
Protocol: When a ^3H amount taken in a DNA chain is measured with a liquid scintillation counter, the pigment of an iron ion causes quenching and an accurate measurement thus cannot be attained. Quenching is classified into three types such as chemical quenching, oxygen quenching, and coloration quenching, and calculation efficiency of a liquid scintillation counter decreases. The case of ^3H being a soft β ray particularly becomes a problem, and coloration quenching becomes a problem in the case of an iron ion. Thus, gallic acid that forms a complex with iron was used and gallic acid iron that is a purple complex was formed. […] The protocol in the case of adding an iron ion is shown below.
In order to prevent oxidation of iron, the reaction solution was exposed to a nitrogen gas for 30 minutes to be degassed.
The reaction solution obtained by adding 50 mM Tris-HCl (pH 7.5), 1 mM dTTP, 40 nM PolydA-dT12, and 10 mM FeCl2 and adjusted to be the total amount of 20 μl with degassed distilled water (DW). […] After the incubation, an iron ion was chelated by adding 10 μl of 100 mM EDTA to terminate the reaction. PicoGreen™ (Molecular Probes), which specifically binds to double-stranded DNA, was used in order to quantitatively determine an amount of DNA synthesized by the DNA polymerase.

[2] = test system: DNA polymerase γ-like enzyme; settings: Non-patent Document 5; cited from earlier work
mouse DNA polymerase α = molecular target: T1, mouse DNA polymerase α (Mus musculus, UniProt P33609); settings: already reported; cited from earlier work
T1 sequence (P33609 1-1465): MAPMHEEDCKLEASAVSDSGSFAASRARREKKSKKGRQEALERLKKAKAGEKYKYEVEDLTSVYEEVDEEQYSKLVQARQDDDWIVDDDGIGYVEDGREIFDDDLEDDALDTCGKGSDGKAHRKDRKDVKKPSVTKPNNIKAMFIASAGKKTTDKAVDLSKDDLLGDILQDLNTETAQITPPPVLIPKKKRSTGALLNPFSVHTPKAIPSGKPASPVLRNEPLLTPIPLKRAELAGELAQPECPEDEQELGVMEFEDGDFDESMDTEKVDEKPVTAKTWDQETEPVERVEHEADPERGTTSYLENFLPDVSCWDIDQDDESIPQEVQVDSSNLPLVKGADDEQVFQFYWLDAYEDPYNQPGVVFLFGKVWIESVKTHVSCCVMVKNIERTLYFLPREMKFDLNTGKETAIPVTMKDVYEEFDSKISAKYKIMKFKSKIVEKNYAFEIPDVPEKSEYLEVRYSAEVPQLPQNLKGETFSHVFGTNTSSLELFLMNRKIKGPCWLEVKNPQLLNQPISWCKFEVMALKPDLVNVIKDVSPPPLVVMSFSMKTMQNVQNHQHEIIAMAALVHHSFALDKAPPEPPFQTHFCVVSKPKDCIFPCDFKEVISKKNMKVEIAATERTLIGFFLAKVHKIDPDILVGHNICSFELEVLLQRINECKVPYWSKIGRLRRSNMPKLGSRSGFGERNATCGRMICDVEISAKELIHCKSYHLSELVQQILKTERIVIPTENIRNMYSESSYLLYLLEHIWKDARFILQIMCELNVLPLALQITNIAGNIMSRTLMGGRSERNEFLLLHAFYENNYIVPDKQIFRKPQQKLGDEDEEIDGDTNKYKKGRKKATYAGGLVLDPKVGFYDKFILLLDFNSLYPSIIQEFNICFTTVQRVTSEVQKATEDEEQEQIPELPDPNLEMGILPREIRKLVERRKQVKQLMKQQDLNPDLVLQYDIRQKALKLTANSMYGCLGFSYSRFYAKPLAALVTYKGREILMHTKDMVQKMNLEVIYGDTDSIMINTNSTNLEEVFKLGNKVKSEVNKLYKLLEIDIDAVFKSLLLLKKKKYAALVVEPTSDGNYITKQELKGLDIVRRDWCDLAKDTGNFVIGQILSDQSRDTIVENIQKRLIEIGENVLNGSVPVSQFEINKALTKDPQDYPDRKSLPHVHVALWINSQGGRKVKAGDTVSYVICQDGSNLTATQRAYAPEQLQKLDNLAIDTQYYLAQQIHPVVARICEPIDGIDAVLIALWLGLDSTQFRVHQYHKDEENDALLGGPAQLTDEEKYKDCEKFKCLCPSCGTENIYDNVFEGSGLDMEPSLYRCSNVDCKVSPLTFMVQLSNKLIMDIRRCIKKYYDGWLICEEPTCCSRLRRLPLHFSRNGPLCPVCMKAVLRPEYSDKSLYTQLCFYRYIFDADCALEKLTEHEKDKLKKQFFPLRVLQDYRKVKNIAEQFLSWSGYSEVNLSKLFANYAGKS

DNA polymerase γ [3] = molecular target: T2, DNA polymerase γ (Mus musculus, UniProt P54099); settings: already reported; cited from earlier work
T2 sequence (P54099 1-1218): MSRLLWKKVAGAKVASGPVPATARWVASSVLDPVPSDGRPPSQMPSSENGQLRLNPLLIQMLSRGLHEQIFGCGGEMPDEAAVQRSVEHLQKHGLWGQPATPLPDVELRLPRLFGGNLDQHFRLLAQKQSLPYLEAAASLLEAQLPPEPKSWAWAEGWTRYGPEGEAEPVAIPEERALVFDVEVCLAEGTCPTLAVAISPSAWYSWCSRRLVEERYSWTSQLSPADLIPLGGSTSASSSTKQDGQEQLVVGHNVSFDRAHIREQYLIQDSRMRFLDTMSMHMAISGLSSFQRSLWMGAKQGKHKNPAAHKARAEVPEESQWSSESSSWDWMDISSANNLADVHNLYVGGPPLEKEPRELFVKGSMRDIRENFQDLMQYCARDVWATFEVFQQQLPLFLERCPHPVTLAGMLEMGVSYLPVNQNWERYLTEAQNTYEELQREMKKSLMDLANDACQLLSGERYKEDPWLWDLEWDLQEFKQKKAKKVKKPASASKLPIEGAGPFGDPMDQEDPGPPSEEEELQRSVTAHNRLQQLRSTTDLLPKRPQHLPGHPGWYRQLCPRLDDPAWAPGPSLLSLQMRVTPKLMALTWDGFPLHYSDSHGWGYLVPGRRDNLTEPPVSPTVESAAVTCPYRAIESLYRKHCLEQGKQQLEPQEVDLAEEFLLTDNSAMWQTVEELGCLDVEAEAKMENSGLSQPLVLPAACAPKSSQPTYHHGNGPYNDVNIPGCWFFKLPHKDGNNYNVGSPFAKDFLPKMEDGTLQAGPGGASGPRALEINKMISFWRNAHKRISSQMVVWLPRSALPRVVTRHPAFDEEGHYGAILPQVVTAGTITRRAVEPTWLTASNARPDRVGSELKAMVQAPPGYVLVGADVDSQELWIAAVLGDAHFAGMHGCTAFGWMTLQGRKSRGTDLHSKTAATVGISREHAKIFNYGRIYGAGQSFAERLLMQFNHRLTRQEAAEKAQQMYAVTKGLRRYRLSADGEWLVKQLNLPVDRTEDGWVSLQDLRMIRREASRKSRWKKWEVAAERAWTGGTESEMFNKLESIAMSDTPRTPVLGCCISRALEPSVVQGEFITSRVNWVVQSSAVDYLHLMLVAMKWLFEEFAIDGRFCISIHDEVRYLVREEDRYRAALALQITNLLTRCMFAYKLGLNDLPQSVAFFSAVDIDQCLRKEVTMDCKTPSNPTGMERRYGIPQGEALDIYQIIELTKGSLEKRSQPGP

[4] = test system: apicoplast DNA polymerase (POMUPfprex); settings: reported; cited from earlier work
PpPolA = settings: FIG. 12b
Protocol: A reaction solution was obtained by adding 50 mM Tris-HCl, 0.5 mM dATP, dGTP, dCTP, 5 μM dTTP, activated DNA (0.5 μg/ml), 0.8 μM [^3H]dTTP (Moravek Co.: (MT-781) Thymidine 5′-triphosphate, tetrasodium salt, [methyl ^3H]), and an enzyme solution was further added thereto, a metallic ion, an inhibitor, etc. having respective concentrations (the total amount of 10 μl). 0.1 μg of a C1 fragment was added per 10 μl. The mixed reaction solution was incubated at 37° C. for 30 minutes, then adsorbed to filter paper, dried, and washed with 5% Na2HPO4 4 times (for 10 minutes for each washing), thereafter washing twice with distilled water (DW) (for 5 minutes for each washing), and finally shaken with 100% ethanol for 5 minutes. The filter paper was then dried and the dried filter paper was contained in a vial container charged with 4 ml of a toluene cocktail, and an intake amount of ^3H was measured with a liquid scintillation counter.

[5] = molecular target: T3, human mitochondrial DNA polymerase γ (Homo sapiens, UniProt P54098); assay: DNA polymerase activity, human mitochondrial DNA polymerase γ; format: biochemical; settings: FIG. 12c
T3 sequence (P54098 1-1239): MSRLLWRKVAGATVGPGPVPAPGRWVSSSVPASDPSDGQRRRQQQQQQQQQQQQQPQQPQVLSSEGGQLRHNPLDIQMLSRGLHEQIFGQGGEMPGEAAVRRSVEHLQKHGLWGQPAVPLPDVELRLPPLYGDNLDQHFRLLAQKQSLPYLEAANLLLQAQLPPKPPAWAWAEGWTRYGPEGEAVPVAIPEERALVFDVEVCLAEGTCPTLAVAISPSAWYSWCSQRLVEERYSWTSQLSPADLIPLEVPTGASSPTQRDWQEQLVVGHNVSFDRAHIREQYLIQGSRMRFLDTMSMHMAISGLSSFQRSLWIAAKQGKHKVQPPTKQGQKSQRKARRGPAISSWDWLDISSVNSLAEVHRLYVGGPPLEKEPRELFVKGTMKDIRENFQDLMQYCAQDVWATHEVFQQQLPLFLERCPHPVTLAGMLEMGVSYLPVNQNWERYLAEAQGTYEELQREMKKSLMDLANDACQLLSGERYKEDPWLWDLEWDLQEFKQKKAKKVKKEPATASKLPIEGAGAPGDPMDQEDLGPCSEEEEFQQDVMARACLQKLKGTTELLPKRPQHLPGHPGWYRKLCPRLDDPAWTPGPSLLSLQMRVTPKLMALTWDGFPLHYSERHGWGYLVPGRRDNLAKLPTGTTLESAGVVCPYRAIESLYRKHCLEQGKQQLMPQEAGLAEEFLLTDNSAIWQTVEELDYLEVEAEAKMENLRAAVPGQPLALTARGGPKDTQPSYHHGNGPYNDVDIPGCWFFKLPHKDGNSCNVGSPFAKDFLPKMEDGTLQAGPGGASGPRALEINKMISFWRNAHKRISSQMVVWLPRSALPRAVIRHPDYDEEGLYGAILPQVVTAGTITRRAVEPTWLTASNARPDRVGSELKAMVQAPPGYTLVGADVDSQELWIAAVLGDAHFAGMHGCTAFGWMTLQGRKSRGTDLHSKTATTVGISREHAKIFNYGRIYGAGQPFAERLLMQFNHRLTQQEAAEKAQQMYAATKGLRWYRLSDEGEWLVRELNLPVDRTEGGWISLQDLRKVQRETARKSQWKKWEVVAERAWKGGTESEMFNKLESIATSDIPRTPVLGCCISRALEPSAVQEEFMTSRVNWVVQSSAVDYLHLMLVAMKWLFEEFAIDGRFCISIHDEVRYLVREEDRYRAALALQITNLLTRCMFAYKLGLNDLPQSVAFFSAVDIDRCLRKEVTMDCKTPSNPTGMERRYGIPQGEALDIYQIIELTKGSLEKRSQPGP
Protocol: 0.1 μg of a C1 fragment was added per 10 μl. The mixed reaction solution was incubated at 37° C. for 30 minutes, then adsorbed to filter paper, dried, and washed with 5% Na2HPO4 4 times (for 10 minutes for each washing), thereafter washing twice with distilled water (DW) (for 5 minutes for each washing), and finally shaken with 100% ethanol for 5 minutes. The filter paper was then dried and the dried filter paper was contained in a vial container charged with 4 ml of a toluene cocktail, and an intake amount of ^3H was measured with a liquid scintillation counter.

DNA polymerase γ [6] = molecular target: T4, DNA polymerase γ (Homo sapiens, UniProt P54098); settings: at a concentration from 50 to 100 mM; reported; cited from earlier work
T4 sequence (P54098 1-1239): T3 sequence (P54098 1-1239)

various DNA polymerases = settings: reported; binds non-specifically; cited from earlier work

Structure (SMILES): CCN1C(=O)C=CC1=O [NEM, N-ethylmaleimide]
DNA polymerase activity on addition of inhibitor ([1]; in the presence at a high concentration, FIG. 11c): the activity scarcely decreased | sensitivity or resistance of the enzyme to inhibitor [2]: sensitivity

Structure (SMILES): Nc1ncnc2c1ncn2CCOCP(=O)(O)OP(=O)(O)OP(=O)(O)O [PMEApp]
sensitivity or resistance of the enzyme to inhibitor [2]: resistance

Structure (SMILES): C[C@@]1(CO)[C@H](O)CC[C@@]2(C)[C@H]1CC[C@H]1C[C@@H]3C[C@@]12CC[C@]3(O)CO [aphidicolin]
DNA polymerase activity on addition of inhibitor ([1]; added at a concentration from 10 to 100 μM, FIG. 11b): the activity scarcely decreased | sensitivity or resistance of the enzyme to inhibitor [2]: resistance

inhibition action to the DNA polymerase activity [1]: inhibited the activity | inhibition action to the DNA polymerase activity (PpPolA): an inhibition effect was not shown | inhibition action to the DNA polymerase activity [5]: an inhibition effect was not shown
Structure (SMILES): CCN(CC)CCCC(C)Nc1ccnc2cc(Cl)ccc12 (stereo not drawn) [chloroquine]
inhibition of DNA polymerase activity (mouse DNA polymerase α): does not inhibit | inhibition of DNA polymerase activity (DNA polymerase γ [3]): does not inhibit | inhibition of DNA polymerase activity [4]: inhibitors

Structure (SMILES): Cc1cn([C@H]2CC[C@@H](COP(=O)(O)OP(=O)(O)OP(=O)(O)O)O2)c(=O)[nH]c1=O [ddTTP]
inhibition of DNA polymerase activity (DNA polymerase γ [6]): mostly inhibited | inhibition effect on DNA polymerase activity ([1]; along with increasing concentration, FIG. 11d): a weak inhibition effect was shown | remaining DNA polymerase activity ([1]; concentration increased to 400 mM, FIG. 11d): 50% | sensitivity or resistance of the enzyme to inhibitor [2]: resistance

Structure (SMILES): Cc1ccc(C(=O)Nc2ccc(S(=O)(=O)O)c3cc(S(=O)(=O)O)cc(S(=O)(=O)O)c23)cc1NC(=O)c1cccc(NC(=O)Nc2cccc(C(=O)Nc3cc(C(=O)Nc4ccc(S(=O)(=O)O)c5cc(S(=O)(=O)O)cc(S(=O)(=O)O)c45)ccc3C)c2)c1 [suramin]
inhibition action to the DNA polymerase activity [1]: inhibited the activity | inhibition of DNA polymerase activity (various DNA polymerases): inhibits the activities | inhibition of DNA polymerase activity [4]: inhibitors
